Target: T1, integrin α4 β1 (Homo sapiens, UniProt P05556+P13612)
T1 construct: cell strain Jurkat (ATCC TIB-152) of human T cells, known to express integrin α4 β1; endogenous in cells; host or cells: Jurkat (ATCC TIB-152)
Assay: VCAM antagonist activity (VCAM-1/α4β1 binding assay), Jurkat cells binding to VCAM-1
Assay type: cell-based
Conditions: Jurkat cells binding to recombinant human VCAM-1; 50% binding inhibition; read-out: Antagonistic Activity IC50 α 4 β 1/VCAM
Description: VCAM Antagonist Activity (VCAM-1/α4β1 Binding Assay)
The capacity of a test substance antagonistic to the binding of cell strain Jurkat (ATCC TIB-152) of human T cells, known to express integrin α4 β1, to VCAM-1 was determined. 100 μl/well of a solution (500 ng/ml) of recombinant human VCAM-1 (R & D systems) solution diluted with buffer A (0.1 M NaHCO3, pH 9.6) was added to a micro titer plate having 96 wells (Nunc Maxisorp). After the incubation at 4° C. overnight, unbound VCAM-1 was removed by washing once with PBS. After completion of the washing, a buffer (buffer B) obtained by diluting Block Ace (Dainippon Pharmaceutical Co., Ltd.) with PBS to ¼ concentration was added in an amount of 150 μl/well. After the incubation at room temperature for 1 hour, buffer B was removed and the plate was washed with PBS once.
Jurkat cells were washed with Dulbecco modified Eagle medium (SIGMA, hereinafter referred to as “DMEM”) twice and then incubated in DMEM containing 10 μg/ml of Calcein-AM (Wako Pure Chemical Industries, Ltd.) at 37° C. in dark place for 30 minutes to label with fluorescence. The cells were again suspended in a binding buffer (20 mM HEPES, DMEM containing 0.1% BSA).
50 μl of a test substance of various concentrations obtained by the dilution with the binding buffer was added to the plate. Immediately thereafter, 50 μl (final volume: 100 μl well) of the fluorescent Jurkat cells (4×10^6 cells/ml) were added thereto, and they were incubated at room temperature for 30 minutes. After the shaking on a plate shaker (IKA MTS-4) at 800 rpm for 30 seconds, the solution was immediately removed to remove the unbound cells. The fluorescence quantity of the bound cells remaining in the wells was determined with a fluorescent plate reader (Wallac 1420 ARVO multi-label counter) (filter excitation wave length: 485 nm, emission wave length: 535 nm). The fluorescent strength thus obtained is proportional to the number of Jurkat cells bound to VCAM-1 and remaining on the plate. The binding rate of each test material in various concentrations was determined while the fluorescent strength of the test material-free well was determined to be 100%. The concentration IC50 for the 50% binding inhibition was calculated.

T1 sequence (P13612 34-1032): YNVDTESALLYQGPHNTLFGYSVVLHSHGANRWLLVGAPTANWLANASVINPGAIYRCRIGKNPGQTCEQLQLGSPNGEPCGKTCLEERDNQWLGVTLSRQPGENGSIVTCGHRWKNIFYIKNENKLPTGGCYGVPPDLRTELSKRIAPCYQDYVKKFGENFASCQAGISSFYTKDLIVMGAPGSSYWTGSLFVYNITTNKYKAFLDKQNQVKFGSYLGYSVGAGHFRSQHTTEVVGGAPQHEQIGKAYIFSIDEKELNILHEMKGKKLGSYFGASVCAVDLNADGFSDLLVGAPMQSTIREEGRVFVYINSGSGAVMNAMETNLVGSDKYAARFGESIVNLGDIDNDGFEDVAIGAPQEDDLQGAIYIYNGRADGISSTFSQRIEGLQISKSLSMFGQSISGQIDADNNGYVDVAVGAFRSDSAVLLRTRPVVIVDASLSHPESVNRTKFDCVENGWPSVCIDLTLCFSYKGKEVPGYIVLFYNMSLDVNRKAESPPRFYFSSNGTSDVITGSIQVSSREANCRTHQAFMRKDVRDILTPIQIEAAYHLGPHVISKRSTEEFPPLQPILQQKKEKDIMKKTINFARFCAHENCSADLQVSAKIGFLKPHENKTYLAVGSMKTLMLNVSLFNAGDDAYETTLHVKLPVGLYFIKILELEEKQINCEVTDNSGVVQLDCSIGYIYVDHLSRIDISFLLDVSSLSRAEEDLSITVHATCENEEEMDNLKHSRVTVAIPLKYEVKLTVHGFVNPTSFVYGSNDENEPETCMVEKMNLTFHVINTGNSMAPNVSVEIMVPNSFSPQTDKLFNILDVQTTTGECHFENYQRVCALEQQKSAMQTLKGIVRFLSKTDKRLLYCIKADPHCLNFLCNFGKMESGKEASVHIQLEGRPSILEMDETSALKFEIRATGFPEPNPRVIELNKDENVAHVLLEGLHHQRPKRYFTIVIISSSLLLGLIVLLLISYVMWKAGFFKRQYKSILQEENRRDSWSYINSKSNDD
T1 sequence (P05556 21-798): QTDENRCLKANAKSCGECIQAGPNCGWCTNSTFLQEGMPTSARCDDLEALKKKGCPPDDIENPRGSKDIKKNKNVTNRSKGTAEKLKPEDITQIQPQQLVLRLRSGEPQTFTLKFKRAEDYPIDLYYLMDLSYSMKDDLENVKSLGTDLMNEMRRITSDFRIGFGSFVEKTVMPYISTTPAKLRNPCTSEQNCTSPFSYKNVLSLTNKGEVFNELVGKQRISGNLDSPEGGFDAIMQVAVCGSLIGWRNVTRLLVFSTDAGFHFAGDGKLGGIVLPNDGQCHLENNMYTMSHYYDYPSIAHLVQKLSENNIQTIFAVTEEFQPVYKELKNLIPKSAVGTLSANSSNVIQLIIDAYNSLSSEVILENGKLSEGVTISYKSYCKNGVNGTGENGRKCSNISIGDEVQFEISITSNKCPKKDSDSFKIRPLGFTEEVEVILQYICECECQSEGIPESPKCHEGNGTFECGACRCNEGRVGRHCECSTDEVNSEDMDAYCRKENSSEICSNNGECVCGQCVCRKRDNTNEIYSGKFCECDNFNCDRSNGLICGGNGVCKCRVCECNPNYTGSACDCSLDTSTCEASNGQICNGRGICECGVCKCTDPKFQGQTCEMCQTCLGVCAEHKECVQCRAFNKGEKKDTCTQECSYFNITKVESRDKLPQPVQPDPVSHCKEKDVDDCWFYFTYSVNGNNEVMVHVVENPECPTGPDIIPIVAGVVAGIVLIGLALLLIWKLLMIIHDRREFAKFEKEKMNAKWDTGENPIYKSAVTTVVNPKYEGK

Row | Compound | IC50 [nM]
1 | O=C(N[C@@H](Cc1ccc(N2C(=O)c3cccc(OCc4ccccc4)c3C2=O)cc1)C(=O)O)c1c(Cl)cccc1Cl [Example 74] | 1200
2 | O=C(N[C@@H](Cc1ccc(N2CC=CC2=O)cc1)C(=O)O)c1c(Cl)cccc1Cl [Example 25] | 5000
3 | O=C(N[C@@H](Cc1ccc(N2C(=O)c3ccc(OCc4ccccc4)cc3C2=O)cc1)C(=O)O)c1c(Cl)cccc1Cl [Example 80] | 1100
4 | O=C(N[C@@H](Cc1ccc(N2C(=O)c3cccc4cccc(c34)C2=O)cc1)C(=O)O)c1c(Cl)cccc1Cl [Example 16] | 1100
5 | O=C(N[C@@H](Cc1ccc(N2C(=O)Cc3ccccc3C2=O)cc1)C(=O)O)c1c(Cl)cccc1Cl [Example 15] | 740
6 | Cc1cccc2c1C(=O)N(c1ccc(C[C@H](NC(=O)c3c(Cl)cncc3Cl)C(=O)O)cc1)C2=O [Example 59] | 73
7 | CN(C)C(=O)c1ccc2c(c1)C(=O)N(c1ccc(C[C@H](NC(=O)c3c(Cl)cccc3Cl)C(=O)O)cc1)C2=O [Example 33] | 260
8 | O=C(N[C@@H](Cc1ccc(N2C(=O)[C@@H]3CCCC[C@H]3C2=O)cc1)C(=O)O)c1c(Cl)cccc1Cl [Example 40] | 240
9 | CC(=O)C1Cc2ccccc2C(=O)N1c1ccc(C[C@H](NC(=O)c2c(Cl)cccc2Cl)C(=O)O)cc1 (some centres unmarked) [Example 86] | 530
10 | O=C(N[C@@H](Cc1ccc(N2C(=O)CC3(CCCC3)CC2=O)cc1)C(=O)O)c1c(Cl)cccc1Cl [Example 48] | 1300
11 | O=C(N[C@@H](Cc1ccc(N2C(=O)C3=C(SCCS3)C2=O)cc1)C(=O)O)c1c(Cl)cccc1Cl [Example 38] | 220
12 | CCOc1ccc2c(c1)C(=O)N(c1ccc(C[C@H](NC(=O)c3c(Cl)cccc3Cl)C(=O)O)cc1)C2=O [Example 79] | 570
13 | O=C(N[C@@H](Cc1ccc(N2C(=O)C3=C(CCCC3)C2=O)cc1)C(=O)O)c1c(Cl)cccc1Cl [Example 37] | 140
14 | O=C(N[C@@H](Cc1ccc(N2C(=O)c3ccc([N+](=O)[O-])cc3C2=O)cc1)C(=O)O)c1c(Cl)cccc1Cl [Example 9] | 170
15 | O=C(N[C@@H](Cc1ccc(N2C(=O)C3CC3C2=O)cc1)C(=O)O)c1c(Cl)cccc1Cl (some centres unmarked) [Example 46] | 1700
16 | O=C(N[C@@H](Cc1ccc(N2CC=CCCC2=O)cc1)C(=O)O)c1c(Cl)cccc1Cl [Example 27] | 2800
17 | Cc1cccc2c1C(=O)N(c1ccc(C[C@H](NC(=O)c3c(Cl)cc(-c4nnn[nH]4)cc3Cl)C(=O)O)cc1)C2=O [Example 83, (2S)-2-(2,6-dichloro-4-tetrazolyl-benzoylamino)-3-[4-(4-methyl-1,3-dioxo-1,3-dihydroisoindole-2-yl)phenyl] Propionic Acid] | 5.9
18 | CC1(C)[C@H]2CC[C@]1(C)C(=O)N(c1ccc(C[C@H](NC(=O)c3c(Cl)cccc3Cl)C(=O)O)cc1)C2=O [Example 49] | 2000

Row | Compound | IC50 [nM]
19 | CCCCOc1cccc2c1C(=O)N(c1ccc(C[C@H](NC(=O)c3c(Cl)cccc3Cl)C(=O)O)cc1)C2=O [Example 75] | 790
20 | CC1CCC2C(=O)N(c3ccc(C[C@H](NC(=O)c4c(Cl)cccc4Cl)C(=O)O)cc3)C(=O)C2C1 (some centres unmarked) [Example 43] | 1600
21 | O=C(N[C@@H](Cc1ccc(N2C(=O)[C@H]3CC[C@H](c4ccccc4)C[C@H]3C2=O)cc1)C(=O)O)c1c(Cl)cccc1Cl [Example 47] | 2100
22 | O=C(N[C@@H](Cc1ccc(N2C(=O)[C@@H]3[C@H](C2=O)[C@@H]2C=C[C@H]3C2)cc1)C(=O)O)c1c(Cl)cccc1Cl [Example 42] | 560
23 | O=C(N[C@@H](Cc1ccc(N2C(=O)Cc3ccccc3CC2=O)cc1)C(=O)O)c1c(Cl)cccc1Cl [Example 82] | 3500
24 | O=C(N[C@@H](Cc1ccc(N2CC=CCC2=O)cc1)C(=O)O)c1c(Cl)cccc1Cl [Example 26] | 5300
25 | O=C(N[C@@H](Cc1ccc(N2C(=O)c3ccccc3C2=O)cc1)C(=O)O)c1c(Cl)cccc1Cl [Example 1] | 210
26 | Nc1cccc2c1C(=O)N(c1ccc(C[C@H](NC(=O)c3c(Cl)cccc3Cl)C(=O)O)cc1)C2=O [Example 71] | 410
27 | Cc1ccc(C)c2c1C(=O)N(c1ccc(C[C@H](NC(=O)c3c(Cl)cccc3Cl)C(=O)O)cc1)C2=O [Example 30] | 450
28 | O=C(N[C@@H](Cc1ccc(N2C(=O)[C@H]3CC=CC[C@H]3C2=O)cc1)C(=O)O)c1c(Cl)cccc1Cl [Example 45] | 1200
29 | O=C(N[C@@H](Cc1ccc(N2C(=O)c3ccc(O)cc3C2=O)cc1)C(=O)O)c1c(Cl)cccc1Cl [Example 77] | 770
30 | COc1ccc2c(c1)C(=O)N(c1ccc(C[C@H](NC(=O)c3c(Cl)cccc3Cl)C(=O)O)cc1)C2=O [Example 78] | 520
31 | CCOc1cccc2c1C(=O)N(c1ccc(C[C@H](NC(=O)c3c(Cl)cccc3Cl)C(=O)O)cc1)C2=O [Example 73] | 210
32 | O=C(N[C@@H](Cc1ccc(N2C(=O)[C@@H]3[C@H](C2=O)[C@@H]2C=C[C@H]3CC2)cc1)C(=O)O)c1c(Cl)cccc1Cl [Example 44] | 1400
33 | Cc1cccc2c1C(=O)N(c1ccc(C[C@H](NC(=O)c3c(Cl)cc(NS(C)(=O)=O)cc3Cl)C(=O)O)cc1)C2=O [Example 84] | 15
34 | O=C(N[C@@H](Cc1ccc(N2Cc3ccccc3C2=O)cc1)C(=O)O)c1c(Cl)cccc1Cl [Example 17] | 1900
35 | Cc1ccc2c(c1)C(=O)N(c1ccc(C[C@H](NC(=O)c3c(Cl)cccc3Cl)C(=O)O)cc1)C2=O [Example 6] | 240

— patent US7452905B2, “Phenylalanine derivatives” (Ajinomoto Co., Inc., priority 2000, dated 2008)
